In brackets after ≈: the same amount, converted by molar mass. Activity calls are given as the source filed them. The rule behind the calls is not given here.
Assays:
Bacillus subtilis [1] = assay: Effect on Bacillus subtilis in plate diffusion test; + indicates clearance zones; format: functional, organism-based
Bacillus subtilis [2] = assay: Minimum inhibitory concentration against Bacillus subtilis; format: functional
Bacillus subtilis [3] = assay: Effect on Bacillus subtilis in plate diffusion test; ++ indicates Srong well defined clearance zone; format: functional, organism-based
Bacillus subtilis [4] = assay: Effect on Bacillus subtilis in plate diffusion test; No growth inhibition; format: functional, organism-based

SMILES	Activity (Bacillus subtilis [1])	MIC (Bacillus subtilis [2]) [mg/L]	Activity (Bacillus subtilis [3])	Activity (Bacillus subtilis [4])
CC(OC(=O)c1ccccc1Cl)c1cccc2nc3c(C(=O)O)cccc3nc12 (configuration not stated)	clearance zones	3.35 (≈ 8.23 µM)	–	–
Cc1cccc(C(=O)OC(C)c2cccc3nc4c(C(=O)O)cccc4nc23)c1OCc1ccccc1 (configuration not stated)	clearance zones	3.73 (≈ 7.57 µM)	–	–
CC(OC(=O)c1c(Cl)cc(Cl)cc1Cl)c1cccc2nc3c(C(=O)O)cccc3nc12 (configuration not stated)	–	2.1 (≈ 4.41 µM)	Srong well defined clearance zone	–
CC(OC(=O)c1cccc(F)c1)c1cccc2nc3c(C(=O)O)cccc3nc12 (configuration not stated)	–	–	–	No growth inhibition
CC(OC(=O)c1cccc(Cl)c1)c1cccc2nc3c(C(=O)OC(C)c4cccc5nc6c(C(=O)O)cccc6nc45)cccc3nc12 (configuration not stated)	–	0.72 (≈ 1.1 µM)	Srong well defined clearance zone	–
C[S+](C)[O-]	–	–	–	inactive
CC(OC(=O)c1cccc(Cl)c1)c1cccc2nc3c(C(=O)O)cccc3nc12 (configuration not stated)	–	0.07 (≈ 0.172 µM)	Srong well defined clearance zone	–
CC(OC(=O)c1ccccc1[N+](=O)[O-])c1cccc2nc3c(C(=O)O)cccc3nc12 (configuration not stated)	clearance zones	2.49 (≈ 5.97 µM)	–	–
CC(OC(=O)c1c(F)cccc1F)c1cccc2nc3c(C(=O)O)cccc3nc12 (configuration not stated)	–	–	–	No growth inhibition
Cc1ccc(C(=O)OC(C)c2cccc3nc4c(C(=O)O)cccc4nc23)c(OCc2ccccc2)c1 (configuration not stated)	–	–	–	No growth inhibition
CC(OC(=O)c1ccccc1F)c1cccc2nc3c(C(=O)O)cccc3nc12 (configuration not stated)	–	–	–	No growth inhibition
CC(OC(=O)c1c(Cl)cccc1Cl)c1cccc2nc3c(C(=O)O)cccc3nc12 (configuration not stated)	clearance zones	2.71 (≈ 6.14 µM)	–	–
Cc1ccc(OCc2ccccc2)c(C(=O)OC(C)c2cccc3nc4c(C(=O)O)cccc4nc23)c1 (configuration not stated)	–	–	–	No growth inhibition
CC(OC(=O)c1ccc(F)cc1)c1cccc2nc3c(C(=O)O)cccc3nc12 (configuration not stated)	clearance zones	3.93 (≈ 10.1 µM)	–	–

From ChEMBL document CHEMBL1135369, “Solid-phase synthesis of new saphenamycin analogues with antimicrobial activity” (2002)
